From patent publication US20150305372A1, “FEED INTAKE OF RUMINANTS USING GREEN FODDER FLAVORS” (BASF SE, priority 2014, published 2015)
Entries after “also recorded” stand apart in the source; their conditions may differ. Marks after values point to notes of the source that are not given here.

Tested on: dairy cows having a high milk performance (German Holstein cattle)
Test: Feeding study of trans-hex-2-enal and hexanal on feed intake, feed intake behavior, milk performance and milk composition of dairy cows
Type: in vivo
Conditions: for FMI (fresh matter intake): 4.3 g/cow/day in TMR via wheat bran premix, control 43.6; for FMI (fresh matter intake) / Milk protein yield / Milk fat yield / DMI (% of BW) / Milk protein / Milk fat / DMI / ECM (energy-corrected milk) / Milk yield / Eating period / Frequency of visits: LSQ means; for FMI (fresh matter intake) / DMI / Eating period: p < 0.05; for Milk protein yield / Milk fat yield / DMI (% of BW) / Milk protein / Milk fat / DMI / ECM (energy-corrected milk) / Milk yield / Eating period / Frequency of visits: 4.3 g/cow/day in TMR; for Milk protein yield: control 1.04; for Milk fat yield: control 1.16; for DMI (% of BW): control 3.3; for Milk protein: control 3.36; for Milk fat: control 3.69; for DMI: control 22.2; for ECM (energy-corrected milk): control 30.2; for Milk yield: control 31.6; for Eating period: control 184; for Frequency of visits: visits to feed trough per day, control 33.1, p < 0.0001; for dry matter intake (DMI) compared with the control group, in words: A vs control p<0.067, B vs control p<0.0234; for visits to the feed trough: control 33.1 visits per day; for fresh matter intake (FMI) compared with the control group, in words: p<0.0001; for more frequent visits to the feed trough than the control group: per day, versus control group
Description: The purpose of the present study is to establish whether 4.3 g/cow/day of trans-hex-2-enal or 4.3 g/cow/day of hexanal affect the DMI value, the milk performance, the milk composition or the feed intake behavior (duration, frequency, etc.) of dairy cows.
The start of the study was calendar week 18 of the experimental year and the end of the study was calendar week 24 of the same year. The feed consumption was determined by means of feed troughs with electronic weight determination, produced by Insentec B.V. (Marknesse, Netherlands). The system identifies each animal by scanning the respective transponder on the neck band of the respective cow using a light barrier. After identification, the animal is allowed free access to the feed trough and the amount of feed taken in on each visit to the trough is recorded automatically.
The system thus determines all visits of each cow to the feed trough, the respective feed intake and the duration of the respective visit. The feed troughs were filled once a day at about 06.30 hours in the morning with an amount of about 70 kg of feed, after the residual feed of the previous day had been removed. During the morning milking, the feed troughs were closed for cleaning for a period of 20 to 30 minutes.
The milk yield was determined individually during each milking process and recorded by the Herd Management Software DairyPlan C21 (GEA Farm Technologies, Boenen, Germany). The cows were milked twice daily at 05.00 hours in the morning and 15.30 hours in the afternoon. Fresh water was freely available at all times.
Every Monday, after each milking, milk samples were taken and, for each cow, the milk composition (fat, protein, somatic cell count) was determined. The energy-corrected milk value (ECM) was determined according to the following equation: […]
All of the cows received a total mixed ration (TMR) (table 2) having a calculated mean daily feed intake of 22 kg of dry matter (DM). Trans-hex-2-enal and hexanal were added to the TMR and thus fed by a premix with wheat bran (trans-hex-2-enal/wheat bran for group A and hexanal/wheat bran for group B).
Samples of the TMR were withdrawn daily from each of the rations, combined to form a weekly sample and frozen until determination of the DM content of the TMRs. Samples of all feed components were taken every 14 days, frozen and pooled over the entire feeding trial up until laboratory analysis.
A standard model for statistical analysis using all parameters was adapted to the weekly data. This is a general, linear, mixed model with the cow as a chance effect and containing the following co-variables:
For the treatment effect, an “overall” P value was presented, and also a P value for the differences between the groups, which were tested both adapted and also non-adapted by means of the Tukey test.

Question: How did the “daily FMI value, mean” value (4.3 g/cow/day) turn out when CCCCCC=O [Hexanal, hexanal] was run?
Answer: 48.3 kg FMI per day

Question: What about the “daily milk production and milk composition compared with the control group, in words” value (4.3 g/cow/day) of the same molecule?
Answer: no differences

Question: What about the “FMI (fresh matter intake)” value of the same molecule?
Answer: 48.3^b kg/d

Question: What about the Milk protein yield of the same molecule?
Answer: 1.06 kg/day

Question: What about the Milk fat yield of the same molecule?
Answer: 1.22 kg/day

Question: And the “DMI (% of BW)” value?
Answer: 3.7 % of BW

Question: What about the Milk protein of the same molecule?
Answer: 3.28%

Question: And the Milk fat?
Answer: 3.77%

Question: What about the DMI of the same molecule?
Answer: 23.8^b kg/d

Question: What about the “ECM (energy-corrected milk)” value of the same molecule?
Answer: 31.3 kg/day

Question: What about the Milk yield of the same molecule?
Answer: 32.7 kg/day

Question: And the Eating period?
Answer: 212^b min

Question: What about the Frequency of visits of the same molecule?
Answer: 45.2^b

Question: What about the “dry matter intake (DMI) compared with the control group, in words” value (4.3 g/cow/day) of the same molecule?
Answer: significant advantage

Question: What about the “visits to the feed trough” value (4.3 g/cow/day) of the same molecule?
Answer: 45.2 times per day

Question: And the “fresh matter intake (FMI) compared with the control group, in words” value (4.3 g/cow/day)?
Answer: higher; also recorded: significantly increased

Question: What about the “more frequent visits to the feed trough than the control group” value (4.3 g/cow/day) of the same molecule?
Answer: 37%

Question: CCC/C=C/C=O [Trans-hex-2-enal] was tested. Which “daily milk production and milk composition compared with the control group, in words” value (4.3 g/cow/day) did it give?
Answer: no differences

Question: What about the “FMI (fresh matter intake)” value of the same molecule?
Answer: 47.8^b kg/d

Question: What about the Milk protein yield of the same molecule?
Answer: 1.06 kg/day

Question: And the Milk fat yield?
Answer: 1.19 kg/day

Question: And the “DMI (% of BW)” value?
Answer: 3.6 % of BW

Question: And the Milk protein?
Answer: 3.26%

Question: And the Milk fat?
Answer: 3.66%

Question: What about the DMI of the same molecule?
Answer: 23.5^ab kg/d

Question: What about the “ECM (energy-corrected milk)” value of the same molecule?
Answer: 31.1 kg/day

Question: What about the Milk yield of the same molecule?
Answer: 33.1 kg/day

Question: And the Eating period?
Answer: 206^ab min

Question: What about the Frequency of visits of the same molecule?
Answer: 48.6^b

Question: And the “dry matter intake (DMI) compared with the control group, in words” value (4.3 g/cow/day)?
Answer: significant advantage

Question: What about the “visits to the feed trough” value (4.3 g/cow/day) of the same molecule?
Answer: 48.6 times per day

Question: What about the “fresh matter intake (FMI) compared with the control group, in words” value (4.3 g/cow/day) of the same molecule?
Answer: higher; also recorded: significantly increased

Question: What about the “more frequent visits to the feed trough than the control group” value (4.3 g/cow/day) of the same molecule?
Answer: 47%
